Experiments:
[1] = system: malignant cell lines (B16 mouse melanoma, LNCAP human prostate cancer, K562); test: Activity of peptides on different malignant cell lines, living and dead cells after 3 hours (FIGS. 6 to 8); type: cell-based; conditions: further experiments
Description: (§1) The peptides as indicated were applied to the cells at a concentration of 60 μM (FIG. 6A) or 6 μM (FIG. 6B). In both experiments the HXArg9, CX1Arg9 and CX2Arg9 peptides used were the (2D) variant peptides in which the N- and C-terminal amino acids are in the D conformation and all remaining amino acids are in the L conformation. The number of living and dead cells were assessed after 3 hours. Black bars=% or number of cells dead. White bars=% or number of cells alive.
as §1, with “7A)” for “6A)”, “7B).” for “6B).”
as §1, with “μM. HXArg9(2D) is” for “μM (FIG. 6A) or 6 μM (FIG. 6B). In both experiments”, “variant form of HXArg9 in which the N-terminal and C-terminal amino acids are in the D conformation and the remaining amino acids are in the L conformation. HXArg9 consists of only L-conformation amino acids. The” for “HXArg9,”, “bars=%” for “bars=% or number of”
(§2) Cell lines were seeded at 4×10^4 cells/ml in liquid culture system made of RPMI-1640 medium (Life Technologies, UK) supplemented with Foetal Calf Serum (10% Sigma Aldrich) and penicillin/streptomycin (1%, Sigma) and at least in duplicate. When required the test peptide was added to the medium. Cell lines were cultured for up to 7 days at 37° C., 5% CO2 in humidified atmosphere. Cultured cells were then assessed for cell viability/enumeration using trypan blue exclusion (Sigma Aldrich).
The activity of the peptides described above was tested on a number of different malignant cell lines using a similar assay to that described previously.

B16 tumours [2] = test: QPCR of RNA extracted from treated B16 tumours; type: in vivo, mice; conditions: IP 15 mg/Kg, two hours after treatment
Description: FIG. 10. […] RNA extracted from (a) B16 cells cultured in vitro and treated with 60 μM peptide for two hours, and (b) B16 tumours treated with peptide injected IP at 15 mg/Kg body weight; tumours were excised and RNA was extracted two hours after treatment. Results are expressed as a proportion of the level of β-actin transcripts. For (a), the results are an average of 2 separate experiments, for (b), the results are an average for tumours taken from three individual mice. U, untreated; C, CX2Arg9(2D) treated; H, HXArg9(2D) treated. Error bars represent the standard error of the mean.
(§3) In order to assess whether the hexapeptide could block HOX/PBX binding in vivo, tumours were treated with HXArg9 for two hours and then used to produce nuclear lysates.

B16 tumours [3] = test: Treatment of murine B16 tumours in vivo; parameters: species or system mice; conditions: 15 mg/kg intraperitoneal
Description: FIG. 12. Treatment of murine B16 tumours in vivo. Mice were injected with one million B16 cells subcutaneously and treatment was started when tumours first became palpatable (day 1=first day after treatment). Mice were injected once daily for four days with an intraperitoneal dose of 15 mg/kg. (a) Changes in tumour size over treatment period (n=4). (b) Histological sections of tumours from HXArg9(2D) (HXR9) and CX2Arg9(2D) (CXR9) treated mice at the end of treatment.
Mice were maintained at the Biological Resource Facility at St. George's. Their care was in accordance to Home Office regulations. B16 cells in exponential growth phase were injected subcutaneously at a dose of 1×10^6 cells into C57black/6 mice. Tumour growth was monitored daily. Once tumours were established, mice received 15 mg/kg HXArg9(2D) intraperitoneal. Mice were euthanised and tumours excised and fixed for histopathological analysis.
(§4) Control groups received control peptide and PBS accordingly. For the A549 tumour model, […] were used to establish flank models. This study was conducted by Perry Scientific Inc., USA.
The B16 F10 murine tumour is a well established in vivo model of melanoma, and is also one of the most aggressive murine tumours (Fidler, I. J. & Nicolson, G. L. Isr. J. Med. Sci. 14, 38-50 (1978), Shrayer, D. et al. Cancer Immunol Immunother. 40, 277-282 (1995)). […]

[4] = Stability of peptides in human plasma at 37° C., SDS-PAGE; type: in vitro ADME
Description: Peptides were incubated in human serum for the times shown and then visualised on a Coomassie brilliant blue stained gel. The arrow heads indicate the position of intact peptide. Standard=peptide only in this lane as a marker.
The stability of HXArg9(2D) and CX2Arg9(2D) was assessed by incubation each with human plasma at 37° C. and the amount of peptide remaining after different amounts of time was assessed by SDS-PAGE. Each peptide was added to freshly prepared human plasma to a final concentration of 1 mM in a total volume of 40 μl. Samples were incubated at 37° C. and reactions were stopped by adding 60 μl of water and 0.9 ml of protein gel loading buffer (BioRad, USA) containing 1% 2-mercaptoethanol, and heating to 95° C. for four minutes. 2 μl of each sample was run on a 22% acrylamide gel. […] This compared with a half life of approximately 40 minutes for the L isomer form HXArg9.

A549 tumours = test: Treatment of A549 tumours in vivo; parameters: species or system mice; conditions: twice weekly, 100 mg/kg followed by 10 mg/kg
Description: FIG. 13. Treatment of A549 tumours in vivo. Nude mice were injected with one million A549 cells subcutaneously and treatment was started when tumours reached an average volume of 100 mm^3. […] (a) intralesional (IT) administration, (b) intraperitoneal (IP) administration.
as §4
We also examined whether HXArg9 could block the growth of a non-melanoma tumour in vivo. In order to do this, we established flank tumours using the non-small cell lung cancer derived cell line A549 (Lieber, M., et al. Int. J. Cancer 17, 62-70 (1976)) in nude mice.

HOX/PBX/DNA complexes = test: Band shift assay, protein extracted from treated B16 tumours; type: in vivo, mice; conditions: tumours treated for two hours
Description: Double stranded oligodexoynucleotide probes were incubated in protein extracted from B16 tumours. One of these probes (HP) contained a HOX/PBX consensus binding region (bold)—5′ CTGTTTGATT TATTTGTTTA 3′. A second, control probe (CP) contained an altered HOX/PBX binding site that is not predicted to bind HOX and PBX proteins—5′ CTGTTACTGA CGATTGTTTA 3′. […] The mobility of CP was unchanged by incubating with the protein extract (lane 11). […] U, untreated; C, CX2Arg9(2D) treated; H, HXArg9(2D) treated; +HP, the HP probe was added to the lysates with an excess of unlabelled probe as shown (0, 5 fold, or 25 fold); +CP, control probe added to lysates; ‘+anti PBX’, anti-PBX antibody added to lysate; ‘+block pep’, a blocking peptide was added to the lysate that blocks anti-PBX antibody from binding to PBX.
as §3

[5] = system: B16 murine melanoma cells; test: Living and dead B16 cells after 3 hours (FIGS. 2A, 9); type: cell-based; conditions: 3 hours
Description: In FIG. 2A the peptides as indicated were applied to the cells at a concentration of 60 μM. The number of living and dead cells were assessed after 3 hours. Black bars=number of cells dead. White bars=number of cells alive.
as §1
The HXArg9 peptide used was the (2D) variant peptide in which the N- and C-terminal amino acids are in the D conformation and all remaining amino acids are in the L conformation. HXArg9 was applied to the cells at a variety of concentrations (μM), and the number of dead and living cells was assessed after 3 hours. Black bars=% cells dead. White bars=% cells alive.
as §2

For CSCC[C@H](NC(=O)[C@H](Cc1c[nH]c2ccccc12)NC(=O)[C@@H]1CCCN1C(=O)[C@H](Cc1ccc(O)cc1)NC(=O)[C@@H](N)Cc1c[nH]c2ccccc12)C(=O)N[C@@H](CCCCN)C(=O)N[C@@H](CCCCN)C(=O)N[C@@H](Cc1c[nH]cn1)C(=O)N[C@@H](Cc1c[nH]cn1)C(=O)N[C@@H](CCCNC(=N)N)C(=O)N[C@@H](CCCNC(=N)N)C(=O)N[C@@H](CCCNC(=N)N)C(=O)N[C@@H](CCCNC(=N)N)C(=O)N[C@@H](CCCNC(=N)N)C(=O)N[C@@H](CCCNC(=N)N)C(=O)N[C@@H](CCCNC(=N)N)C(=O)N[C@@H](CCCNC(=N)N)C(=O)N[C@@H](CCCNC(=N)N)C(=O)O [HXArg9, WYPWMKKHHRRRRRRRRR], the “effectiveness in preventing cellular proliferation compared with HXP4” value [1] was “as effective as HXP4”, the “transcripts of Fos, Jun, Dusp1 and Atf3 (QPCR)” value (B16 tumours [2]) was “upregulated” and the “histological analysis of excised tumours” value (B16 tumours [3]) was “inner cell death”. For the same compound, the “tumour size at end point” value (B16 tumours [3]; once daily for four days) was “significant degree of shrinkage”, the half-life [4] was about 40 min and the tumour growth (A549 tumours) was “significant reduction in tumour growth”. For the same compound, the “binding of tumour protein extract to HOX/PBX consensus probe” value (HOX/PBX/DNA complexes) was “could not bind a DNA probe containing a HOX/PBX consensus binding site”, the ablation of cells ([5]; 4.625 μM) was “significant ablation” and the ablation of cells ([5]; 37 μM) was “ablation of substantially all”. For the same compound, the ablation of cells ([5]; 74 μM) was “ablation of substantially all”.

Source: patent US20090286738A1, “Gene Regulation” (ST. GEORGE'S ENTERPRISES LIMITED, priority 2005, published 2009)
